Test results from ChEMBL document CHEMBL4831545, “Hormesis Effect of Berberine against Klebsiella pneumoniae Is Mediated by Up-Regulation of the Efflux Pump KmrA” (J Nat Prod, 2021).
Active and inactive are the calls of the source. The calls are words filed in the database; no cut-off is given here.

Assays:
Klebsiella pneumoniae [1] = assay: Hormesis activity against Klebsiella pneumoniae assessed as increase in antibiotic MIC by measuring ampicillin MIC at 3 ug/ml incubated for 12 hrs by OD600 based analysis (reference value: 12.5 ug/ml); format: ADME, organism-based; conditions: in vivo, dose 3 µg/ml
Klebsiella pneumoniae [2] = assay: Hormesis activity against overnight compound-treated Klebsiella pneumoniae deficient in KmrA gene expression assessed as increase in antibiotic MIC by measuring meropenem MIC at 3 ug/ml incubated for 12 hrs by OD600 based analysis (reference value: 0.39625 ug/ml); format: ADME, organism-based; conditions: in vivo, dose 3 µg/ml
Enterobacter cloacae [3] = assay: Hormesis activity against overnight compound-treated Enterobacter cloacae assessed as increase in antibiotic MIC by measuring azithromycin MIC at 3 ug/ml incubated for 12 hrs by OD600 based analysis (reference value: 6.25 ug/ml); format: ADME, organism-based; conditions: in vivo, dose 3 µg/ml
Enterobacter cloacae [4] = assay: Hormesis activity against Enterobacter cloacae assessed as increase in antibiotic MIC by measuring meropenem MIC at 3 ug/ml incubated for 12 hrs by OD600 based analysis (reference value: 0.1953 ug/ml); format: ADME, organism-based; conditions: in vivo, dose 3 µg/ml
Acinetobacter baumannii [5] = assay: Hormesis activity against Acinetobacter baumannii assessed as increase in antibiotic MIC by measuring tetracycline MIC at 3 ug/ml incubated for 12 hrs by OD600 based analysis (reference value: 240 ug/ml); format: ADME, organism-based; conditions: in vivo, dose 3 µg/ml
Klebsiella pneumoniae [6] = assay: Hormesis activity against overnight compound-treated Klebsiella pneumoniae assessed as increase in antibiotic MIC by measuring tetracycline MIC at 3 ug/ml incubated for 12 hrs by OD600 based analysis (reference value: 6 ug/ml); format: ADME, organism-based; conditions: in vivo, dose 3 µg/ml
[7] = Upregulation of KmrA promoter activity in Klebsiella pneumoniae assessed as increase in beta-galactosidase activity at 3 ug/ml by LacZ based OD600 analysis relative to control; format: ADME; conditions: dose 3 µg/ml
Acinetobacter baumannii [8] = assay: Hormesis activity against Acinetobacter baumannii assessed as increase in antibiotic MIC by measuring ampicillin MIC at 3 ug/ml incubated for 12 hrs by OD600 based analysis (reference value: 100 ug/ml); format: ADME, organism-based; conditions: in vivo, dose 3 µg/ml
Enterobacter cloacae [9] = assay: Hormesis activity against overnight compound-treated Enterobacter cloacae assessed as increase in antibiotic MIC by measuring hygromycinMIC at 3 ug/ml incubated for 12 hrs by OD600 based analysis (reference value: 25 ug/ml); format: ADME, organism-based; conditions: in vivo, dose 3 µg/ml
Enterobacter cloacae [10] = assay: Hormesis activity against overnight compound-treated Enterobacter cloacae assessed as increase in antibiotic MIC by measuring cefotaxime MIC at 3 ug/ml incubated for 12 hrs by OD600 based analysis (reference value: 1.5625 ug/ml); format: ADME, organism-based; conditions: in vivo, dose 3 µg/ml
Enterobacter cloacae [11] = assay: Hormesis activity against overnight compound-treated Enterobacter cloacae assessed as increase in antibiotic MIC by measuring ampicillin MIC at 3 ug/ml incubated for 12 hrs by OD600 based analysis (reference value: 25 ug/ml); format: ADME, organism-based; conditions: in vivo, dose 3 µg/ml
Enterobacter cloacae [12] = assay: Hormesis activity against overnight compound-treated Enterobacter cloacae assessed as increase in antibiotic MIC by measuring rifampicin MIC at 3 ug/ml incubated for 12 hrs by OD600 based analysis (reference value: 25 ug/ml); format: ADME, organism-based; conditions: in vivo, dose 3 µg/ml
[13] = Upregulation of efflux pump KmrA gene expression in Klebsiella pneumoniae at 3 ug/ml incubated for 12 hrs by transcriptome analysis; format: ADME; conditions: dose 3 µg/ml
Klebsiella pneumoniae [14] = assay: Hormesis activity against Klebsiella pneumonia assessed as inhibition of bacterial growth by measuring shortened logarithmic growth phase at 25 to 50 ug/ml measured after 24 hrs by OD600 based analysis; format: functional, organism-based; conditions: dose 25-50 µg/ml
Klebsiella pneumoniae [15] = assay: Hormesis activity against overnight compound-treated Klebsiella pneumoniae deficient in KmrA gene expression assessed as increase in antibiotic MIC by measuring cefotaxime MIC at 3 ug/ml incubated for 12 hrs by OD600 based analysis (reference value: 0.39625 ug/ml); format: ADME, organism-based; conditions: in vivo, dose 3 µg/ml
Klebsiella pneumoniae [16] = assay: Hormesis activity against Klebsiella pneumonia deficient in KmrA gene expression assessed as promotion of bacterial growth at 3 to 6 ug/ml measured for 24 hrs by OD600 based analysis; format: organism-based; conditions: in vivo, dose 3-6 µg/ml
Acinetobacter baumannii [17] = assay: Hormesis activity against Acinetobacter baumannii assessed as increase in antibiotic MIC by measuring rifampicin MIC at 3 ug/ml incubated for 12 hrs by OD600 based analysis (reference value: 1.5625 ug/ml); format: ADME, organism-based; conditions: in vivo, dose 3 µg/ml
Acinetobacter baumannii [18] = assay: Hormesis activity against overnight-compound treated Acinetobacter baumannii assessed as increase in antibiotic MIC by measuring streptomycin MIC at 3 ug/ml incubated for 12 hrs by OD600 based analysis (reference value: 400 ug/ml); format: ADME, organism-based; conditions: in vivo, dose 3 µg/ml
Acinetobacter baumannii [19] = assay: Hormesis activity against Acinetobacter baumannii assessed as increase in antibiotic MIC by measuring cefotaxime MIC at 3 ug/ml incubated for 12 hrs by OD600 based analysis (reference value: 12.5 ug/ml); format: ADME, organism-based; conditions: in vivo, dose 3 µg/ml
Klebsiella pneumoniae [20] = assay: Hormesis activity against Klebsiella pneumoniae deficient in KmrA gene expression assessed as increase in antibiotic MIC by measuring chloramphenicol MIC at 3 ug/ml incubated for 12 hrs by OD600 based analysis (reference value: 6.25 ug/ml); format: ADME, organism-based; conditions: in vivo, dose 3 µg/ml
Acinetobacter baumannii [21] = assay: Hormesis activity against overnight-compound treated Acinetobacter baumannii assessed as increase in antibiotic MIC by measuring atreonamMIC at 3 ug/ml incubated for 12 hrs by OD600 based analysis (reference value: 6.25 ug/ml); format: ADME, organism-based; conditions: in vivo, dose 3 µg/ml
Enterobacter cloacae [22] = assay: Hormesis activity against overnight compound-treated Enterobacter cloacae assessed as increase in antibiotic MIC by measuring atreonamMIC at 3 ug/ml incubated for 12 hrs by OD600 based analysis (reference value: 3.125 ug/ml); format: ADME, organism-based; conditions: in vivo, dose 3 µg/ml
Klebsiella pneumoniae [23] = assay: Hormesis activity against overnight compound-treated Klebsiella pneumoniae assessed as increase in antibiotic MIC by measuring atreonamMIC at 3 ug/ml incubated for 12 hrs by OD600 based analysis (reference value: 1.5625 ug/ml); format: ADME, organism-based; conditions: in vivo, dose 3 µg/ml
Klebsiella pneumoniae [24] = assay: Hormesis activity against Klebsiella pneumoniae deficient in KmrA gene expression assessed as increase in antibiotic MIC by measuring ampicillin MIC at 3 ug/ml incubated for 12 hrs by OD600 based analysis (reference value: 12.5 ug/ml); format: ADME, organism-based; conditions: in vivo, dose 3 µg/ml
Klebsiella pneumoniae [25] = assay: Hormesis activity against overnight compound-treated Klebsiella pneumoniae assessed as increase in antibiotic MIC by measuring chloramphenicol MIC at 3 ug/ml incubated for 12 hrs by OD600 based analysis (reference value: 6.25 ug/ml); format: ADME, organism-based; conditions: in vivo, dose 3 µg/ml
Enterobacter cloacae [26] = assay: Hormesis activity against Enterobacter cloacae assessed as increase in antibiotic MIC by measuring cefotaxime MIC at 3 ug/ml incubated for 12 hrs by OD600 based analysis (reference value: 1.5625 ug/ml); format: ADME, organism-based; conditions: in vivo, dose 3 µg/ml
Enterobacter cloacae [27] = assay: Hormesis activity against overnight compound-treated Enterobacter cloacae assessed as increase in antibiotic MIC by measuring chloramphenicol MIC at 3 ug/ml incubated for 12 hrs by OD600 based analysis (reference value: 3.125 ug/ml); format: ADME, organism-based; conditions: in vivo, dose 3 µg/ml
Klebsiella pneumoniae [28] = assay: Hormesis activity against Klebsiella pneumoniae assessed as increase in antibiotic MIC by measuring rifampicin MIC at 3 ug/ml incubated for 12 hrs by OD600 based analysis (reference value: 25 ug/ml); format: ADME, organism-based; conditions: in vivo, dose 3 µg/ml
Klebsiella pneumoniae [29] = assay: Hormesis activity against Klebsiella pneumoniae assessed as increase in antibiotic MIC by measuring chloramphenicol MIC at 3 ug/ml incubated for 12 hrs by OD600 based analysis (reference value: 6.25 ug/ml); format: ADME, organism-based; conditions: in vivo, dose 3 µg/ml

MIC (Klebsiella pneumoniae [1]): 12.5 mg/L | MIC (Klebsiella pneumoniae [2]): 0.3962 mg/L | MIC (Enterobacter cloacae [3]): 6.25 mg/L | MIC (Enterobacter cloacae [4]): 0.1953 mg/L | MIC (Acinetobacter baumannii [5]): 240 mg/L | MIC (Klebsiella pneumoniae [6]): 12 mg/L | fold change (FC) [7]: 2.5 | MIC (Acinetobacter baumannii [8]): 200 mg/L | MIC (Enterobacter cloacae [9]): 25 mg/L | MIC (Enterobacter cloacae [10]): 3.125 mg/L | MIC (Enterobacter cloacae [11]): 50 mg/L | MIC (Enterobacter cloacae [12]): 50 mg/L | MIC (Klebsiella pneumoniae [15]): 0.3962 mg/L | MIC (Acinetobacter baumannii [17]): 3.125 mg/L | MIC (Acinetobacter baumannii [18]): 400 mg/L | MIC (Acinetobacter baumannii [19]): 12.5 mg/L | MIC (Klebsiella pneumoniae [20]): 6.25 mg/L | MIC (Acinetobacter baumannii [21]): 6.25 mg/L | MIC (Enterobacter cloacae [22]): 3.125 mg/L | MIC (Klebsiella pneumoniae [23]): 1.5625 mg/L | MIC (Klebsiella pneumoniae [24]): 12.5 mg/L | MIC (Klebsiella pneumoniae [25]): 6.25 mg/L | MIC (Enterobacter cloacae [26]): 3.125 mg/L | MIC (Enterobacter cloacae [27]): 3.125 mg/L | MIC (Klebsiella pneumoniae [28]): 25 mg/L | MIC (Klebsiella pneumoniae [29]): 6.25 mg/L
SMILES: COc1ccc2cc3[n+](cc2c1OC)CCc1cc2c(cc1-3)OCO2 [BERBERINE]
Activity [13]: Toxic | Activity (Klebsiella pneumoniae [14]): Active | Activity (Klebsiella pneumoniae [16]): Non-Toxic
